In patent US5041542A, “Substituted pyrimido[5,4-d]pyrimidine nucleosides” (Nucleic Acid Research Institute, priority 1988, dated 1991):
In brackets after ≈: the same amount, converted by molar mass. Like-named read-outs stand apart in the source and are kept apart here.

Legend:
[1] = tested on: pyrimidine (CTP + UTP) and purine (ATP + GTP) nucleoside triphosphates; experiment: 14C-bicarbonate incorporation into acid soluble pyrimidine and purine nucleoside triphosphates; format: cell-based
Text: Comparative effect of compounds on ^14 C-bicarbonate
incorporation into acid soluble pyrimidine (PyrTP,
CTP + UTP) and purine (PurTP, ATP + GTP) nucleoside

[2] = tested on: parainfluenza 3 (C243 strain); experiment: In vitro antiviral activity, parainfluenza 3 (virus rating); format: cell-based; settings: Vero cells; VR >1.0 marked, 0.5 to 0.9 moderate, <0.5 weak or no activity
L1210 cells = experiment: In vitro cytotoxicity, L1210; format: cell-based, murine; settings: Mus musculus, L1210, 72 h; 3 days, 37° C., MTT; read-out: Antitumor (ID50) L1210
Protocol: (§1) ^b (ID50) inhibitory dose is the μM concentration of the
(§2) In vitro cytotoxicity analysis was performed by using the following cell lines: L1210 (a murine leukemia), WI-L2 (a human B-lymphoblast), and LoVo/L (a human colon carcinoma). Cells were grown in RPMI 1640 medium supplemented with 10% fetal bovine serum, 20 mM HEPES, pH 7.4, and 2 mM glutamine. The cytotoxicity determinations were carried out in 96-well microtiter dishes containing a starting number of 5-10×10^3 cells per well and 0.1-100 μM concentrations of the compounds in triplicate wells. L1210 and WI-L2 were incubated with the compounds at 37° C. for 3 days, while Lovo/L was incubated for 5 days. After this time period, 25 μL of 4 mg/mL 3-(4,5-dimethylthiazol-2-yl)-2,5-diphenyltetrazolium bromide was added to each well and incubation was continued for 2 to 5 h. The formazan product was dissolved in isopropanol containing 0.04M HCl and the absorbance was determined with a microtiter plate reader. The absorbance was proportional to the number of cells.

LoVo/L cells = experiment: In vitro cytotoxicity, LoVo/L; format: cell-based; settings: Homo sapiens, 120 h, 5 days, 37° C., MTT, read-out: Antitumor (ID50) LoVo/L
Protocol: as §1, §2

WI-L2 cells = experiment: In vitro cytotoxicity, WI-L2; format: cell-based; settings: Homo sapiens, WIL2, 72 h; 3 days, 37° C., MTT; read-out: Antitumor (ID50) WI-L2
Protocol: as §1, §2

[3] = tested on: vaccinia virus (Elstree strain); format: cell-based; settings: HeLa cells; VR >1.0 marked, 0.5 to 0.9 moderate, <0.5 weak or no activity
L1210 = experiment: In vivo antitumor activity against L1210 in BDF1 mice
Protocol: Compounds 8, 11, 14 and 17 were comparatively evaluated in vivo for efficacy against L1210 in BDF1 mice.
Mice were inoculated i.p. with 1×10^6 L1210 cells 24 hr before qd, day 1, i.p. drug delivery. Drugs were solubilized in water and delivered at the rate of 0.01 ml/g mouse weight. Then control mice/drug were injected i.p. with equivalent volumes of a 0.9% solution of NaCl, the means and standard deviations reflecting the postinoculation life spans of these mice ranged from 6.30±0.48 to 6.60±0.97 days.

[4] = Lethal toxicity in treated mice
physchem = settings: water
[5] = delivered at 0.01 ml/g mouse weight
[6] = tested on: herpes simplex virus type 2 (MS strain); experiment: In vitro antiviral activity, herpes simplex virus type 2 (virus rating); format: cell-based; settings: Vero cells; VR >1.0 marked, 0.5 to 0.9 moderate, <0.5 weak or no activity
[7] = tested on: WI-L2 cells deficient in adenosine kinase; experiment: Cytotoxicity to WI-L2 cells deficient in adenosine kinase activity; format: cell-based, human; settings: 100 μM
Protocol: (§3) Compounds of the invention were also tested for certain biochemical properties. Compounds of the invention were studied for their effect on de novo purine biosynthesis by observing inhibition of incorporation of [^14 C]formate into the acid-soluble fraction of WI-L2 cells (see Table 3). […] However, 8 and 14 (100 μM) were not cytotoxic to WI-L2 cells deficient in adenosine kinase activity.
(§4) A normal lymphoblast phenotype B cell line, WI-L2 was used. The enzyme-deficient cell lines used in vitro are: HPRT-, a hypoxanthine-guanine phosphorbosyl transferase (EC 2.4.2.8)deficient line and AK-, an adenosine kinase (EC 2.7.1.20)deficient line. Cells were cultured in RPMI 1640 medium containing 5% dialyzed fetal bovine serum, 20 mM Na HEPES, pH 7.5 and 2 mM glutamine and maintained in log phase growth between 0.5 and 12×10^5 cells/mL. The mutant cell lines were periodically reselected by treatment with 6-thioguanine (HPRT-) or tubercidin (AK-).

[8] = tested on: de novo purine biosynthesis in WI-L2 cells; experiment: Inhibition of de novo purine biosynthesis ([14C]formate incorporation); format: cell-based, human; settings: for minimal effective concentration: active at concentrations as low as, read-out: lowest active concentration, de novo purine biosynthesis; for activity at 0.25 µM / activity at 2.5 µM: pre-incubation 8 h; for inhibitory activity on de novo purine biosynthesis (ranking): WI-L2 cells
Protocol: as §3, §4
. Inhibition of de novo purine biosynthesis: WI-L2 or adenosine kinase-deficient cells were preincubated at 37° C. with drug for various time periods prior to labeling with [^14 C]formate. Enzyme Assays: Adenosine kinase inhibition studies were accomplished by the filter binding assay method. Inhibition studies were done at 37° C. with an assay mixture containing 4 mM ATP, 1.5 mM MgCl2, 5 or 10 μM [8-^14 C] adenosine (50 mCi/mmol) and 100 mM Tris-maleate, pH 5.5. To prevent the enzymatic breakdown of adenosine, erythro-9-(2-hydroxy-3-nonyl)adenine (EHNA) was added to the cell-free WI-L2 lysate to give 5 μM final assay concentration. The assay was started by the addition of protein. The amount of enzyme, time of assay and sampling volume were adjusted to give acceptable conversion of [8-^14 C] adenosine to [8-^14 C]AMP. Each DE-81 filter was spotted with a constant sampling volume and immersed in H 2 O (4 L) to terminate the reaction. Filters were washed three times with H2 O (4 L) and once with EtOH (100 mL). Dry filters were placed in scintillation vials and radioactivity was counted with 10 mL toluene-based scintillation cocktail.
De novo purine biosynthesis was measured by the incorporation of ^14 C-formate into cellular purine nucleotides or excreted purines after pre-incubation with compound.

in vitro = format: biochemical; settings: adenosine deaminase, pH 7.5
Protocol: (§5) Samples were analyzed directly on reverse-phase HPLC. Enzymatic conversions were distinguished from hydrolysis by treating a parallel sample with EHNA to inhibit the deaminase activity.

adenosine deaminase = experiment: in vitro; format: biochemical; settings: compared with ARPP
Protocol: as §5

[9] = Homo sapiens, WIL2, cell, read-out: de novo purine biosynthesis, % of control, cell, 0.25 μM
[10] = Homo sapiens, WIL2, cell, read-out: de novo purine biosynthesis, % of control, cell, 2.5 μM
[11] = Homo sapiens, WIL2, media (excreted purines), read-out: de novo purine biosynthesis, % of control, media, 0.25 μM
[12] = Homo sapiens, WIL2, media (excreted purines), read-out: de novo purine biosynthesis, % of control, media, 2.5 μM

SMILES	Antiviral (VR) PI3 [2] [VR]	IC50 (L1210 cells) [nM]	IC50 (LoVo/L cells) [nM]	IC50 (WI-L2 cells) [nM]	Antiviral (VR) VV [3] [VR]	lethal toxicity at maximum soluble dosage ([4]; i.p.)	solubility (physchem) [mg/mL]	Maximum watersoluble dosage [5] [mg/kg/inj.]	Antiviral (VR) HSV2 [6] [VR]	cytotoxicity to adenosine kinase-deficient WI-L2 cells [7]	effect on de novo purine biosynthesis [8]	minimal effective concentration ([8]; Homo sapiens, WIL2) [µM]	activity at 0.25 µM [8, 9] [%]	activity at 2.5 µM [8, 10] [%]	activity at 0.25 µM [8, 11] [%]	activity at 2.5 µM [8, 12] [%]	inhibitory activity on de novo purine biosynthesis (ranking) [8]	substrate activity for adenosine deaminase (adenosine deaminase)	further results
Nc1ncnc2c(N[C@@H]3O[C@H](CO)[C@@H](O)[C@H]3O)ncnc12 [Compound 8, 4-Amino-8-(β-D-ribofuranosylamino)pyrimido[5,4-d]pyrimidine, reference compound]	0.7	800	7000	200	1.3	Neither drug was lethally toxic at its maximum soluble dosage	17.3 (≈ 58.8 mM)	173	0.8	not cytotoxic	inhibit an early step in de novo purine biosynthesis	0.25	79.5	29.9	71.9	54.6	greatest inhibitory activity	preferential disappearance of the β-anomer	CAA (carbamyl aspartate), 1.5 μM ([1]; 1.5 μM): 1608 cpm/10^6 cells; PurTP, 1.5 μM ([1]; 1.5 μM, zero = undetectable): 0 cpm/10^6 cells; PyrTP, 1.5 μM ([1]; 1.5 μM, zero = undetectable): 0 cpm/10^6 cells; activity at 1.5 µM ([1]; 1.5 μM, zero = undetectable, read-out: PurTP, % control, 1.5 μM): 0%; activity at 1.5 µM ([1]; read-out: PydTP, % control, 1.5 μM): 0%; Postinoculation Lifespan (% T/C), 173 mg/kg/inj. (L1210; 173 mg/kg/inj. i.p., qd, day 1): 162 % T/C; T/C (L1210; qd, day 1, at maximum soluble dosage): 162; metabolised at 5 min, 1000 µM (in vitro; 5 min, β-anomer, read-out: conversion of β-anomer by adenosine deaminase in 5 min): 60%
COc1ncnc2c(N[C@@H]3O[C@H](CO)[C@@H](O)[C@H]3O)ncnc12 [Compound 14, 4-Methoxy-8-(β-D-ribofuranosylamino)pyrimido[5,4-d]pyrimidine]	0.7	40	280	60	1.0	lethally toxic at that level for all treated mice	17.3 (≈ 55.9 mM)	173	0.2	not cytotoxic	inhibit an early step in de novo purine biosynthesis	0.25	41.9	2.7	63	41.8	greatest inhibitory activity	less active as a substrate for adenosine deaminase	CAA (carbamyl aspartate), 5.0 μM ([1]; 5.0 μM): 1322 cpm/10^6 cells; PurTP, 5.0 μM ([1]; 5.0 μM, zero = undetectable): 0 cpm/10^6 cells; PyrTP, 5.0 μM ([1]; 5.0 μM, zero = undetectable): 0 cpm/10^6 cells; activity at 5 µM ([1]; 5.0 μM, zero = undetectable, read-out: PurTP, % control, 5.0 μM): 0%; activity at 5 µM ([1]; 5.0 μM, zero = undetectable, read-out: PydTP, % control, 5.0 μM): 0%; T/C, 62 mg/kg (L1210; 62 mg/kg, qd day 1): 182; Postinoculation Lifespan (% T/C), 62 mg/kg/inj. (L1210; 62 mg/kg/inj. i.p., qd, day 1): 182 % T/C; maximum non-lethal concentration ([4]; i.p., qd day 1): 6.2 mg/mL; death of treated mice at 10.4 mg/mL ([4]; made up at 10.4 mg/mL): 1/6; activity at 25 µM ([8]; Homo sapiens, WIL2, cell, 25 μM, pre-incubation 4 h, read-out: de novo purine biosynthesis, % of control, cell, 25 μM): 4.3%; metabolised at 18 h, 1000 µM (in vitro; 18 h, same conditions as for ARPP, read-out: deaminated by adenosine deaminase in 18 h): < 10%
